Assay results: ChEMBL document CHEMBL1201862, “PubChem BioAssay data set” (2004)
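Where inhibition never reached the appropriate level, the endpoint shown equals the highest concentration tested. Otherwise, values were interpolated linearly from a five-concentration, 48-hour dose response in 96-well plates. The concentration for 50% growth inhibition is given as GI50.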 Active and inactive are the calls of the source. No stated cut-off is given here; in the data, active = GI50 up to about 1.1 µM and inactive = higher.

Key:
Assay in all cases: NCI-60 cell line screen, 48 h
[1] = test system: DMS-273
[2] = test system: HOP-18
[3] = test system: KM-20L2
[4] = test system: SNB-78
[5] = test system: RXF 631
[6] = test system: DLD-1
[7] = test system: M19-MEL
[8] = test system: XF498

Measured: GI50

C[n+]1cn(CC(=O)c2ccccc2)c(C(N)=O)c1N
inactive: [1] > 100 µM | [2] > 100 µM | [3] > 100 µM | [4] > 100 µM | [5] > 100 µM | [6] > 100 µM | [7] 25.2 µM

O/N=C1\C(=C\c2ccc3c(c2)OCCO3)CCCC1C(NO)c1ccc2c(c1)OCCO2 (stereo not drawn)
inactive: [1] 19.2 µM | [2] 43.4 µM | [3] 19 µM | [4] 33.9 µM | [5] 32.9 µM | [6] 31.6 µM | [7] 24.9 µM

CC(CC(=O)Nc1ccc(NC(=O)CC(C)/N=N\C(N)=S)cc1)/N=N\C(N)=S (stereo not drawn)
inactive: [1] 36.9 µM | [2] > 100 µM | [3] > 100 µM | [8] > 100 µM | [4] > 100 µM | [5] > 100 µM | [6] > 100 µM | [7] > 100 µM

Cc1cc(NS(=O)(=O)c2ccc(Nc3c4ccccc4nc4c(C(=O)Nc5ccc(S(=O)(=O)N=C(N)N)cc5)cccc34)cc2)no1
inactive: [1] > 100 µM | [2] > 100 µM | [3] > 100 µM | [8] > 100 µM | [4] > 100 µM | [5] > 100 µM | [6] > 100 µM | [7] > 100 µM

COC12OCCN(C)C1=CC(=O)C1N=NCC12 (stereo not drawn)
inactive: [1] > 100 µM | [2] > 100 µM | [4] > 100 µM | [5] > 100 µM | [6] > 100 µM | [7] > 100 µM

Cc1ccccc1C(=O)c1cc(O)ccc1O
inactive: [1] 42.3 µM | [2] > 100 µM | [3] 32.6 µM | [8] > 100 µM | [4] > 100 µM | [5] > 100 µM | [6] 55.7 µM | [7] > 100 µM

CC1=Nc2c(O)nc(S)nc2NC(c2ccc(Cl)c(Cl)c2)C1 (stereo not drawn)
inactive: [1] 26.1 µM | [2] > 89.1 µM | [3] 25.6 µM | [8] > 65.8 µM | [4] 60.4 µM | [6] 31.6 µM | [7] 18.5 µM

Cc1ccc(S(=O)(=O)O/N=C2\CCC\C2=C/c2ccccc2)cc1
inactive: [1] 32.8 µM | [2] 20.3 µM | [3] 22.1 µM | [8] 18.5 µM | [4] 1.31 µM | [5] 16.9 µM | [6] 19.1 µM | [7] 20.1 µM

O=C(C#Cc1ccccc1)N1c2ccccc2CC1c1c[nH]c2ccccc12 (stereo not drawn)
inactive: [1] 12.7 µM | [3] 21.9 µM | [4] 13 µM | [5] 14.3 µM | [6] 2.07 µM | [7] 16.1 µM

COc1ccccc1NC(=O)C1=C(C)NC(C)=C(C(=O)Nc2ccccc2OC)C1c1cccc2c1OCO2
inactive: [1] > 100 µM | [2] > 100 µM | [3] > 100 µM | [5] > 100 µM | [6] > 100 µM | [7] > 100 µM

COc1ccc2c3c([nH]c(=O)c2c1C(=O)O)-c1ccccc1CC3
inactive: [1] > 100 µM | [3] > 100 µM | [8] > 100 µM | [4] 79.1 µM | [5] > 100 µM | [6] > 100 µM

OCC1CC2CC1C1(C2)OCCO1 (stereo not drawn)
inactive: [1] > 100 µM | [2] > 100 µM | [3] > 100 µM | [8] > 100 µM | [4] > 100 µM | [5] > 100 µM | [6] > 100 µM | [7] > 100 µM

O=Cc1[nH]c2ccccc2c1Br
inactive: [1] 17.8 µM | [2] 27.7 µM | [3] 22.2 µM | [8] 30.1 µM | [4] 15.8 µM | [5] 20 µM | [6] 22.6 µM | [7] 22.1 µM

NC(=O)C(=Cc1ccc(C(O)P(=O)(O)O)cc1)C(N)=O (stereo not drawn)
inactive: [1] > 100 µM | [2] > 100 µM | [3] > 100 µM | [8] > 100 µM | [4] > 100 µM | [5] > 100 µM | [6] > 100 µM | [7] > 100 µM

C[C@@H](C1CCC2C3C(=CC(=O)[C@@]21C)[C@H](C)[C@]1(CCC(=O)O1)C1OC31)[C@H]1C[C@]2(C)O[C@@](C)(O1)OC2(C)C (stereo partly drawn)
inactive: [1] > 100 µM | [2] > 100 µM | [3] > 100 µM | [8] > 100 µM | [5] > 100 µM | [6] > 100 µM | [7] > 100 µM
